Paper PMC11623990, “Deferasirox and Ciprofloxacin: Potential Ternary Complex Formation With Ferric Iron, Pharmacodynamic, and Pharmacokinetic Interactions” (The Scientific World Journal, 2024)
Values after ≈ are worked out from the molar mass of the structure shown.

Tests used:
[1] = Apparent octanol/H2O partition coefficient; format: physicochemical; settings: (±SD) in brackets, n = 3
Procedure: (§1) Excess solid of each compound to be tested was added to 6 mL of either phosphate buffer (pH 6.8), acetate buffer (pH 4.5), or 0.1 M HCl and left on a shaker water bath (37°C) for 24 h. One mL was centrifuged for 10 min, and 100 μL of the supernatant was properly diluted with the mobile phase (1:4) before being injected onto HPLC. For determination of octanol/H2O PC, 0.6 mL of the supernatant solution was transferred to a new tube containing 2 mL of octanol. Tubes containing the two layers of octanol and aqueous phase were kept on shaker water bath (37°C) for 24 h. Aliquots of aqueous layer were properly diluted with the mobile phase before being injected onto HPLC. The concentration of the drug in octanol layer was calculated by difference.

[2] = set-up: method as in PMID 10508341, doi:10.1002/ejic.200400363; settings: practically measured; cited from earlier work
[3] = Level of DFX in plasma of iron-overloaded rats (HPLC); format: in vivo; settings: male, Wistar, rat, (SD), N = 8
Procedure: (§2) Ethical approval of the study protocol was obtained from the Institutional Review Board at the University of Jordan (Approval No. 47–2022) on 17th May 2022 (document No. 19/2022/289). Throughout the study, all animals were housed, fed, and treated in accordance with The University of Jordan ethical guidelines for animal protection. The animal house of the University of Jordan, which is equipped with proper ventilation and temperature control (25 ± 4°C) systems, was utilized for the study. Each animal was placed in a separate standard cage. Sixteen male Wistar rats (6 weeks old, average weight 220 ± 10 g) were subjected to an iron-enriched diet containing 2.5% carbonyl iron according to Ackerman et al. for 6 weeks. Another group of eight rats (control group) was subjected to an ordinary pellet diet for the same period. The 16 animals with iron fortified diets were then separated into two groups of eight: the DFX group which received DFX alone and the DFX-CP group which received DFX plus CP, for 6 days. Drugs were given orally through proper mixing with food so that on average, each animal would ingest 30 mg/kg DFX daily incorporated within 15 gm of dried food. For the DFX-CP group, the 15 g dried food contained CP equivalent to 30 mg/kg of animal weight. Blood samples were collected from animals using the orbital venous plexus bleeding method with the aid of ether anesthesia in special EDTA tubes on days 1, 3, and 6 after initiation of the drug treatment. Blood samples were centrifuged, and plasma was collected in Eppendorf tubes and kept at −80°C until time of analysis for DFX. On the sixth day of the treatment, animals were sacrificed by cervical dislocation with the aid of mild anesthesia. […]
DFX was determined in plasma and GIT content using a slightly modified HPLC method from that employed in the solubility studies. […]
The method was properly validated for selectivity, precision, accuracy, and linearity. […] However, CP could not be determined by this method as it was coeluted early with other components of the plasma. […]

[4] = system: iron-overloaded rat model; assay: Level of iron in blood and other tissues determined by AAS; format: in vivo, Wistar rats; settings: (SD), n = 8
Procedure: Ethical approval of the study protocol was obtained from the Institutional Review Board at the University of Jordan (Approval No. 47–2022) on 17th May 2022 (document No. 19/2022/289). Throughout the study, all animals were housed, fed, and treated in accordance with The University of Jordan ethical guidelines for animal protection. The animal house of the University of Jordan, which is equipped with proper ventilation and temperature control (25 ± 4°C) systems, was utilized for the study. Each animal was placed in a separate standard cage. Sixteen male Wistar rats (6 weeks old, average weight 220 ± 10 g) were subjected to an iron-enriched diet containing 2.5% carbonyl iron according to Ackerman et al. for 6 weeks. Another group of eight rats (control group) was subjected to an ordinary pellet diet for the same period. The 16 animals with iron fortified diets were then separated into two groups of eight: the DFX group which received DFX alone and the DFX-CP group which received DFX plus CP, for 6 days. Drugs were given orally through proper mixing with food so that on average, each animal would ingest 30 mg/kg DFX daily incorporated within 15 gm of dried food. For the DFX-CP group, the 15 g dried food contained CP equivalent to 30 mg/kg of animal weight. Blood samples were collected from animals using the orbital venous plexus bleeding method with the aid of ether anesthesia in special EDTA tubes on days 1, 3, and 6 after initiation of the drug treatment. Blood samples were centrifuged, and plasma was collected in Eppendorf tubes and kept at −80°C until time of analysis for DFX. On the sixth day of the treatment, animals were sacrificed by cervical dislocation with the aid of mild anesthesia. Liver, heart, kidney, spleen, and the whole gastrointestinal tract (GIT) of all animals were collected and immediately stored in 10% formalin solution for further assessment.
Accurately weighed samples of the tissues to be determined (90–120 mg for liver, and 50–80 mg for heart and spleen) were digested in 1.5 mL of concentrated H2SO4 at 60°C for two days. Samples were vortex mixed and initially diluted 12 times using 2M HCl and filtered using a 0.45 μm PTFE syringe filters. Further dilutions were made if necessary and as appropriate upon sample measurement. Samples were read on Aurora AI1200 atomic absorption spectrophotometer at the specific wavelength of iron. FeCl3 standard solution 1000 μg/mL (Scharlau, Spain) was used to prepare calibration curve solutions. Proper blank samples were prepared along with the calibration curve of standard iron solution. Linearity was established in the range 0.1–8 µg/mL, with a linearity coefficient > 0.99. A typical calibration equation was […]. For statistical analysis, the potential existence of a significant difference between the averages of two groups, a t-test was employed using GraphPad software.

[5] = Saturation solubility, shake-flask with HPLC; format: physicochemical; settings: (±SD) in brackets, n = 3
Procedure: The molar ratio of association between iron and either of the drugs was determined by completely dissolving 2.7 mg of the metal complex products in 10 mL of a mixture of butanol, DMSO, and DMF (3:5:2). Solutions were then diluted twice in DMSO and five times in mobile phase before being injected into HPLC. The developed HPLC method was validated for this purpose and for the determination of solubility and partition coefficients (PCs). The optimum conditions developed comprised a phenyl column (4.6 mm ID; 150 mm·L; Thermo Scientific Hypersil) with a mobile phase consisting of 34% acetonitrile in a 50 mM phosphate buffer. The mobile phase mixture contained 0.032% citric acid, 0.02% EDTA, 0.032% hydroxylamine HCl, and 0.07% trimethylamine, with the overall pH adjusted to 3.7. The mobile phase was delivered isocratically at a flow rate of 1.2 mL/min, and chromatograms monitored at 290 nm.
as §1

[6] = set-up: method as in PMID 10508341, doi:10.1002/ejic.200400363; settings: cited from earlier work
[7] = system: iron-overloaded rat model; assay: Histological assessment of organs (H&E and Pearl's stain for iron deposits); format: in vivo, Wistar rats
Procedure: as §2, with “weight.” for “weight. Blood samples were collected from animals using the orbital venous plexus bleeding method with the aid of ether anesthesia in special EDTA tubes on days 1, 3, and 6 after initiation of the drug treatment. Blood samples were centrifuged, and plasma was collected in Eppendorf tubes and kept at −80°C until time of analysis for DFX. On the sixth day of the treatment, animals were sacrificed by cervical dislocation with the aid of mild anesthesia.”

**Q.** What does the source list for `O=C(O)c1ccc(-n2nc(-c3ccccc3O)nc2-c2ccccc2O)cc1` [DFX, Deferasirox]?
**A.** Apparent partition coefficient ([1]; pH 4.5, 37°C): 2.1 (5.7); Apparent partition coefficient ([1]; pH 6.8, 37°C): 7.9 (1.11); Formation constants of DFX to Fe^3+ [2]: 10^37-10^38; concentration at 1 day ([3]; 1 day after start of drugs in food (30 mg/kg daily oral)): 1200 ng/mL; concentration at 3 day ([3]; 3 days after start of drugs in food (30 mg/kg daily oral)): 10700 ng/mL; concentration at 6 day ([3]; 6 days after start of drugs in food (30 mg/kg daily oral)): 9700 ng/mL; Content of iron in dried tissue ([4]; dried blood, 3 days after initiation of chelation therapy): 4.73 (0.2) mg/100g of tissue; Content of iron in dried tissue ([4]; dried blood, 6 days after initiation of chelation therapy): 4.94 (0.2) mg/100g of tissue; Content of iron in dried tissue ([4]; heart, after 6 days of treatment): 50.3 (2.7) mg/100g of tissue; Content of iron in dried tissue ([4]; liver, after 6 days of treatment): 162.6 (10.1) mg/100g of tissue; Content of iron in dried tissue ([4]; spleen, after 6 days of treatment): 168.8 (9.8) mg/100g of tissue; solubility at 24 h ([5]; 0.1 M HCl, pH 1.2, pH 1.2 (0.1 M HCl), 37°C): 9.9 µg/mL (≈ 26.5 µM); solubility at 24 h ([5]; acetate buffer, pH 4.5, pH 4.5 acetate buffer, 37°C): 19.1 µg/mL (≈ 51.2 µM); Solubility ([5]; pH 6.8 phosphate buffer, 37°C, 24 h): 140.8 (1.9) μg/mL; solubility at 24 h ([5]; phosphate buffer, 37 °C, pH 6.8, aqueous buffer, thermodynamic from solid, pH 6.8 phosphate buffer): 140 µg/mL (≈ 375 µM); Affinity of DFX to Fe^2+ [6]: very low affinity; Iron deposition in spleen tissue (Pearl's stain) ([7]; compared with the combined treatment group and the control group, seen in six out of eight animals): clearly higher levels of deposited iron; Iron deposition in liver tissue (Pearl's stain) ([7]; compared with the combined treatment group, seen in six of eight animals): higher level of iron deposition
